The values below come from ChEMBL document CHEMBL1130260, “A strategy for the incorporation of water molecules present in a ligand binding site into a three-dimensional quantitative structure--activity relationship analysis” (J Med Chem, 1997).

The assay has as its target Glycogen phosphorylase, muscle form (Oryctolagus cuniculus) (UniProt P00489). The following applies: Muscle tissue.

Sequence of Glycogen phosphorylase, muscle form (Oryctolagus cuniculus) (P00489 whole entry, looked up): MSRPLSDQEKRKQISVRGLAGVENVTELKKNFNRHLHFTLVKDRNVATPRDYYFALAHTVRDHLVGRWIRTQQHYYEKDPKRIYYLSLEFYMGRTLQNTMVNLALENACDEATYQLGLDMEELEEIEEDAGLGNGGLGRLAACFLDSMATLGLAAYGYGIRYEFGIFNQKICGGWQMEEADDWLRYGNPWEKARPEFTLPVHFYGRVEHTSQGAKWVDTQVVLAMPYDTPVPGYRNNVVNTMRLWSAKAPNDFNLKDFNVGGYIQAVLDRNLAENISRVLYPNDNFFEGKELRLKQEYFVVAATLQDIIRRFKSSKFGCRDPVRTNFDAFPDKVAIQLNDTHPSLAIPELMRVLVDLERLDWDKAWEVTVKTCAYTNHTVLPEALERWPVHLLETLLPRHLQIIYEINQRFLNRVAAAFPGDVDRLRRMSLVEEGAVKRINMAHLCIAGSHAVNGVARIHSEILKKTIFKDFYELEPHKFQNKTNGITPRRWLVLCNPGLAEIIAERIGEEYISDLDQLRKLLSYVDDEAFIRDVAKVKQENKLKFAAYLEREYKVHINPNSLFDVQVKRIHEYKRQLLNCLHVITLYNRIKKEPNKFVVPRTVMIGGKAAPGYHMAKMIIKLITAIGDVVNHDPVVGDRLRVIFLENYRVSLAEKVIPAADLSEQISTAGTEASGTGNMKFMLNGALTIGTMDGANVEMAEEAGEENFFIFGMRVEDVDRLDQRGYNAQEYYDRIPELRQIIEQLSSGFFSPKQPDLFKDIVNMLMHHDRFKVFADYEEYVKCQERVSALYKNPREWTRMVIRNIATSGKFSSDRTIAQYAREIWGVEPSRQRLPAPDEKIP

What is called pKi is −log10 of the Ki, conventionally taken in molar units. Lower therefore signals a high Ki. `O=C(NCC(F)(F)F)[C@H]1O[C@@H](CO)[C@@H](O)[C@H](O)[C@@H]1O` gave a pKi of 2.09. `OC[C@H]1O[C@H](OCC2O[C@@H](O)[C@H](O)[C@@H](O)[C@@H]2O)[C@H](O)[C@@H](O)[C@H]1O` (stereo partly drawn) yielded a pKi of 1.79. Next, `O=C(NC1CC1)[C@H]1O[C@@H](CO)[C@@H](O)[C@H](O)[C@@H]1O`: 2.89. Molecule `OC[C@@H]1O[C@H](OC[C@H]2S[C@H](O)[C@H](O)[C@@H](O)[C@@H]2O)[C@@H](O)[C@@H](O)[C@@H]1O` gave a negative logarithm of the Ki (pKi) of 2.7. With `NNC(=O)[C@@H]1O[C@H](CO)[C@@H](O)[C@H](O)[C@H]1O` (stereo in doubt; 14), the negative-log Ki (pKi) amounted to 3.4. Molecule `CS(=O)(=O)OC[C@]1(O)O[C@@H](CO)[C@@H](O)[C@H](O)[C@@H]1O` yielded a pKi of 2.43. As for `NCC1OC(CO)C(O)C(O)C1O` (stereo in doubt; 19), the negative-log Ki (pKi) is 1.78. Take `NC(=O)N[C@H]1O[C@H](CO)[C@@H](O)[C@H](O)[C@H]1O`: the negative logarithm of the Ki (pKi) was 3.85. Take `OC[C@@H]1O[C@H](n2cc(O[C@@H]3O[C@H](CO)[C@@H](O)[C@H](O)[C@H]3O)c3ccccc32)[C@@H](O)[C@@H](O)[C@@H]1O`: the negative-log Ki (pKi) was determined as 2.59. For `OCC1OC(CO)C(O)C(O)C1O` (stereo not drawn) the value was 2.82; for `NC(=O)CS[C@H]1O[C@H](CO)[C@@H](O)[C@H](O)[C@H]1O`, 1.68; for `O=C(CCl)N[C@H]1O[C@H](CO)[C@@H](O)[C@H](O)[C@H]1O`, 4.35. Take `NCC(=O)N[C@H]1O[C@@H](CO)[C@@H](O)[C@H](O)[C@@H]1O`: the pKi is 3.43. Regarding `O=C(CS[C@H]1O[C@H](CO)[C@@H](O)[C@H](O)[C@H]1O)Nc1ccccc1`, the pKi is 2.44. For `COC(=O)N[C@@H]1O[C@H](CO)[C@@H](O)[C@H](O)[C@H]1O`, the negative-log Ki (pKi) was 4.07. For `COC(=O)C1OC(CO)C(O)C(O)C1O` (stereo in doubt; 4) the value was 1.62; for `NCC1OC(CO)C(O)C(O)C1O` (stereo in doubt; 5), 1.46; for `O=C(Nc1ccccc1)C1OC(CO)C(O)C(O)C1O` (stereo not drawn), 2.27. Next, `CCC(=O)N[C@H]1O[C@H](CO)[C@@H](O)[C@H](O)[C@H]1O`: 4.41. `[N-]=[N+]=NC[C@@]1(O)O[C@@H](CO)[C@@H](O)[C@H](O)[C@@H]1O` returned a negative-log Ki (pKi) of 2.13. As to `CCCC(=O)N[C@H]1O[C@H](CO)[C@@H](O)[C@H](O)[C@H]1O`, the negative logarithm of the Ki (pKi) worked out at 4.03. For `O=C(CBr)N[C@H]1O[C@@H](CO)[C@@H](O)[C@H](O)[C@@H]1O`, the negative logarithm of the Ki (pKi) stood at 4.36. For `[N-]=[N+]=NC[C@H]1O[C@H](CO)[C@@H](O)[C@H](O)[C@H]1O` the value was 1.65; for `NNC(=O)[C@@H]1O[C@H](CO)[C@@H](O)[C@H](O)[C@H]1O` (stereo in doubt; 3), 2.52. The molecule `NCCC1OC(CO)C(O)C(O)C1O` (stereo not drawn) displayed a pKi of 2.35. The molecule `CNC(=O)C1OC(CO)C(O)C(O)C1O` (stereo not drawn) displayed a pKi of 3.8. `O=C(NCCO)[C@H]1O[C@@H](CO)[C@@H](O)[C@H](O)[C@@H]1O`: the negative-log Ki (pKi) is 2.59. In turn, `N#CC[C@@H]1O[C@H](CO)[C@@H](O)[C@H](O)[C@H]1O` yielded a negative logarithm of the Ki (pKi) of 2.05. For `CNNC(=O)[C@H]1O[C@H](CO)[C@@H](O)[C@H](O)[C@H]1O` the value was 2.75; for `COC(=O)N[C@]1(C(N)=O)O[C@H](CO)[C@@H](O)[C@H](O)[C@H]1O` (stereo in doubt; 35), 4.8; for `O=C(N[C@H]1O[C@H](CO)[C@@H](O)[C@H](O)[C@H]1O)c1ccccc1`, 4.09.

For the molecule `O=C1N[C@@]2(O[C@@H](CO)[C@@H](O)[C@H](O)[C@@H]2O)C(=O)N1O`, the negative-log Ki (pKi) was 4.41.

`O=C1CNC(=O)[C@@]2(N1)O[C@@H](CO)[C@@H](O)[C@H](O)[C@@H]2O` displayed a pKi of 4.22. Turning to `CS(=O)(=O)OCC1OC(CO)C(O)C(O)C1O` (stereo not drawn), the negative-log Ki (pKi) came to 2.32. For the molecule `[N-]=[N+]=NC[C@@H]1O[C@H](CO)[C@@H](O)[C@H](O)[C@H]1O`, the negative logarithm of the Ki (pKi) amounted to 1.82. `COC(=O)C1OC(CO)C(O)C(O)C1O` (stereo in doubt; 18): the negative logarithm of the Ki (pKi) was found to be 2.55.

Molecule `CC(=O)NCC(=O)N[C@H]1O[C@H](CO)[C@@H](O)[C@H](O)[C@H]1O` yielded a negative-log Ki (pKi) of 3. On to `O=C(CS[C@H]1O[C@H](CO)[C@@H](O)[C@H](O)[C@H]1O)Nc1ccc(F)cc1F`, for which the pKi was 1.72.

With `OC[C@@H]1O[C@@](O)(CO)[C@@H](O)[C@@H](O)[C@@H]1O`, the negative logarithm of the Ki (pKi) was 1.8.

Take `NN1C(=O)N[C@@]2(O[C@@H](CO)[C@@H](O)[C@H](O)[C@@H]2O)C1=O`: the negative-log Ki (pKi) worked out at 3.84. For `OCC1OC(S)C(O)C(O)C1O` (stereo not drawn) the value was 3. As for `N#CC[C@]1(O)O[C@H](CO)[C@@H](O)[C@H](O)[C@H]1O`, the pKi was determined as 2.12. For the molecule `NC(=O)C1OC(CO)C(O)C(O)C1O` (stereo in doubt; 9), the pKi was 3.36.

In turn, `CC(=O)N[C@H]1O[C@H](CO)[C@@H](O)[C@H](O)[C@H]1O` registered a pKi of 4.5.

`COC(=O)N[C@]1(C(N)=O)O[C@H](CO)[C@@H](O)[C@H](O)[C@H]1O` (stereo in doubt; 49): the pKi was 3.5. `O=C(Nc1ccc(O)cc1)[C@H]1O[C@@H](O)[C@@H](O)[C@H](O)[C@@H]1O`: the negative-log Ki (pKi) is 2.36. `CC(=O)NN1C(=O)N[C@@]2(O[C@@H](CO)[C@@H](O)[C@H](O)[C@@H]2O)C1=O` came in with a pKi of 3.26. Molecule `NC(=O)C1OC(CO)C(O)C(O)C1O` (stereo in doubt; 2) gave a pKi of 3.43.
